Measured values as given in patent publication US8557737B2, “Methods of altering poppy characteristics” (priority 2005, dated 2013).

What was measured:
Type in all cases: in vivo, Papaver somniferum
poppy crops [1] = experiment: Example 17: field trial, triasulfuron, mesosulfuron-methyl and metsulfuron-methyl at early run-up and mid-late run-up, morphine crop; conditions: Trt 5: COMPOUND 2 150 MG/HA + ACTIVATOR .125% V/V at ERU and M-LRU
Method: (§1) All trials were conducted on poppy crops. Seed was treated with Thiram (5.6 g of Thiram 800/kg seed) and Apron (4 g/kg) and sown at a rate of approximately 750 g/ha. Fertilisers were applied at sowing. Most commonly, either 50:50 lime:superphosphate/triple superphosphate at 125 kg/ha, or lime:superphosphate at 250 kg/ha, were mixed with seed and drilled at a depth of 15 mm. In the same operation, NPK (nitrogen:phosphorus:potassium), at various rates, was banded 75 mm below the seed, unless otherwise stated. All crops were subjected to herbicide sprays for weed control, fungicide sprays for disease control, insecticide sprays if appropriate and were irrigated as required.
(§2) All spray applications were made with a precision sprayer, using Silvan Lurmark flat-fan, low-drift nozzles (LD110-0015). Spray equipment was calibrated to deliver 153 L water/ha.
(§3) At harvest, a 2 m×4 m quadrat was placed in each plot (3 m×6 m, unless otherwise stated) and capsules hand-picked from this area. Capsules were broken up, seed and capsule material separated and weighed. Capsule moisture readings were taken with a moisture meter. Alkaloid yield data were calculated on Pesticide Research Manager (version 5 for Windows) using the formulae below. Briefly, capsule weight was adjusted for moisture to a dry weight, 5% of seed weight was added to this (this amount of capsule material regularly occurs in seed samples after processing) to give a capsule weight per plot. Seed weight was adjusted to 95% of crude weight. Straw weights were determined by multiplying dry capsule weight by 1.3 (estimated amount of stem material in a commercial harvest) and adjusted to 11% moisture. When Lontrel was applied to crops exact capsule and seed weight data were entered. Analyses of variance and a Multiple Range Test were performed on data using Pesticide Research Manager.
Trial to evaluate applications of triasulfuron, mesosulfuron-methyl and metsulfuron-methyl, in a morphine crop. Treatment sprays were applied to with crop at early run-up and mid-late run-up, respectively. Plant heights were measured on 6 weeks after last application and lodging was assessed at capsule harvest.

poppy crops [2] = experiment: Example 16: field trial, metsulfuron-methyl, mesosulfuron-methyl and triasulfuron at row cover and ground cover/early run-up, morphine crop; conditions: Trt 5: COMPOUND 2 150 MG/HA + ACTIVATOR .125% V/V at RC and GC/ERU
Method: as §1, §2, §3
Trial to evaluate applications of metsulfuron-methyl (Compound 1), mesosulfuron-methyl (Compound 2) and triasulfuron (Compound 3), in a morphine crop. Treatment sprays were applied to crop at row cover and ground cover/early run-up, respectively. Plant heights were assessed 5 weeks after last application and lodging was assessed at capsule harvest.

poppy crops [3] = experiment: Example 18: field trial, triasulfuron, mesosulfuron-methyl and metsulfuron-methyl at row cover, mid run-up and early hook, morphine crop; conditions: Trt 5: COMPOUND 2 150 MG/HA + ACTIVATOR .125% V/V at RC, MRU and LRU
Method: as §1, §2, §3
Trial to evaluate applications of triasulfuron, mesosulfuron-methyl and metsulfuron-methyl, in a morphine crop. […] Plant heights were measured 5 weeks after last application and lodging at capsule harvest.

poppy crops [4] = experiment: Example 9: field trial, mesosulfuron-methyl and metsulfuron-methyl, morphine crop; conditions: for LODGING: assessed on the day of capsule harvest; for HEIGHT: measured at green capsule stage
Method: as §1, §2, §3
Trial to evaluate applications of mesosulfuron-methyl (Compound 2) and metsulfuron-methyl (Compound 1), in a morphine crop. Treatment sprays were applied to crop at ground cover, late run-up and early bud-emergence, respectively. Plant heights were measured at green capsule stage, and lodging assessed on the day of capsule harvest.

[5] = COMPOUND 2 390 MG/HA + ACTIVATOR .125 % V/V at GC and EBE
[6] = COMPOUND 2 390 MG/HA + ACTIVATOR .125 % V/V at GC, LRU and EBE

COC(=O)c1ccc(CNS(C)(=O)=O)cc1S(=O)(=O)NC(=O)Nc1nc(OC)cc(OC)n1 [Compound 2, mesosulfuron-methyl]
CAPS/SEED RATIO (poppy crops [1]): 2.315 days | CROP WEIGHT (poppy crops [1]): 2.57 b t/ha | MORPHINE (poppy crops [1]): 41.97 b kg/ha | SEED (poppy crops [1]): 612 b kg/ha | STRAW (poppy crops [1]): 1910 b kg/ha | STRAW MORPHINE (poppy crops [1]): 2.23 b % | PLANT HEIGHT (poppy crops [1]; 6 weeks after last application): 104.0 b cm | LODGING (poppy crops [1]; at capsule harvest): 2.8 b % | CAPS/SEED RATIO (poppy crops [2]): 0.825 c | CROP WEIGHT (poppy crops [2]): 3.65 ab t/ha | MORPHINE (poppy crops [2]): 43.77 ab kg/ha | SEED (poppy crops [2]): 1671 b kg/ha | STRAW (poppy crops [2]): 1976 ab kg/ha | STRAW MORPHINE (poppy crops [2]): 2.21 a % | PLANT HEIGHT (poppy crops [2]; 5 weeks after last application): 101.6 b cm | CAPS/SEED RATIO (poppy crops [3]): 1.071 b | CROP WEIGHT (poppy crops [3]): 3.25 a t/ha | MORPHINE (poppy crops [3]): 42.83 b kg/ha | SEED (poppy crops [3]): 1281 b kg/ha | STRAW (poppy crops [3]): 1917 b kg/ha | STRAW MORPHINE (poppy crops [3]): 2.23 b % | PLANT HEIGHT (poppy crops [3]; 5 weeks after last application): 96.4 b cm | LODGING (poppy crops [3]; at capsule harvest): 2.8 a % | CAPSULE/SEED RATIO (poppy crops [4]; [5]): 2.084 b | CROP WEIGHT (poppy crops [4]; [5]): 1.80 c t/ha | MORPHINE (poppy crops [4]; [5]): 26.41 b kg/ha | SEED (poppy crops [4]; [5]): 460 b kg/ha | STRAW (poppy crops [4]; [5]): 1342 c kg/ha | STRAW MORPHINE (poppy crops [4]; [5]): 2.10 a % | LODGING (poppy crops [4]; [5]): 6.5 bc % | HEIGHT (poppy crops [4]; [5]): 96.0 ab cm | CAPSULE/SEED RATIO (poppy crops [4]; [6]): 1.854 b | CROP WEIGHT (poppy crops [4]; [6]): 1.16 d t/ha | MORPHINE (poppy crops [4]; [6]): 15.27 c kg/ha | SEED (poppy crops [4]; [6]): 336 b kg/ha | STRAW (poppy crops [4]; [6]): 827 d kg/ha | STRAW MORPHINE (poppy crops [4]; [6]): 2.03 a % | LODGING (poppy crops [4]; [6]): 11.0 ab % | HEIGHT (poppy crops [4]; [6]): 89.3 b cm
